# Test results taken from publication PMC11984586, “A novel spider toxin as a selective antagonist of the Kv1 subfamily of voltage-gated potassium channels through gating modulation” (The Journal of Biological Chemistry, 2025).
# Bridge positions count the residues as written; N and C are the ends. Peptide text beside a SMILES is read from it.
# Assays:
# hKv1.1 = biological target: T1, hKv1.1 (Homo sapiens, UniProt Q09470); test: Whole-cell patch clamp, Kv1.1 ionic current in CHO-K1 cells; assay type: cell-based
# T1 construct: expressed in transfected cells; host or cells: CHO-K1
# T1 sequence (Q09470 whole entry): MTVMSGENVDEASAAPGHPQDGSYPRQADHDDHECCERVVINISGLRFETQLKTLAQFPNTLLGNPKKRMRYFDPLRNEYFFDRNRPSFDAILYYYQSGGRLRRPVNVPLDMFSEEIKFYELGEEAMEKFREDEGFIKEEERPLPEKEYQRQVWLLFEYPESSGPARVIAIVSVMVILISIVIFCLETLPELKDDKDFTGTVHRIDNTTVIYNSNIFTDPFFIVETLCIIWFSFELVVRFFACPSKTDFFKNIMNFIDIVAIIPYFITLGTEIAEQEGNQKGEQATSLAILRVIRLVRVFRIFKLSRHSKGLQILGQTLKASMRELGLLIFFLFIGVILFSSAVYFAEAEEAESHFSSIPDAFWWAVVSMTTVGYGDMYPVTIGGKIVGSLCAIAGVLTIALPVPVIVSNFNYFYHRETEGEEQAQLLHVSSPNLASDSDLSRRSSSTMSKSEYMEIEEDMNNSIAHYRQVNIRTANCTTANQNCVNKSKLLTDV
# Protocol: (§1) The cDNA of hKv1.1, hKv1.2, hKv1.3, rKv1.4, hKv1.5, mKv1.6, and hKv1.7 were subcloned into mammalian expression vectors pcDNA3.1 or pCMV-blank vectors, as well as other plasmids described previously ([35]). Channel mutants were generated by site-directed mutations. Briefly, the parental channel plasmid was amplified using a pair of oppositely directed primers harboring the designed mutation site, with KOD Fx (TOYOBO Co, Ltd). The resulting PCR mix was treated with FastDigest DpnI (Thermo Fisher Scientific) to remove the methylated template. Ten microliters of the digested product was then used to transform 100 μl E. coli DH5α competent cells. Transformants were randomly picked and sequenced to confirm the presence of the intended mutation.
# (§2) CHO-K1 cells were selected for expressing Kv channels due to their lack of endogenous Kv channels, while HEK293 or ND7/23 cells were used for Nav and Cav channel expression. CHO-K1 cells were cultured in a Dulbecco's modified Eagle's medium/Ham's F-12 nutrient mixture (DMEM-F12) medium, and HEK293T and ND7/23 cells in DMEM medium, all supplemented with 10% fetal bovine serum and 1% penicillin-streptomycin (all from Gibco, Thermo Fisher Scientific, Inc) under standard conditions (37 °C, 5% CO2, and saturated humidity). These cell lines were purchased from Stem Cell Bank, Chinese Academy of Sciences. Channel plasmids were cotransfected with pEGFP-N1 (encoding GFP) into the respective cells using lipofectamine 2000, following the manufacturer's instructions (Invitrogen, Thermo Fisher Scientific, Inc.). Nav1.9-GFP plasmid was transfected into ND7/23 using the X-tremeGENE HP DNA Transfection Reagent (Roche). After 4 to 6 h transfection, cells were seeded onto poly-lysine–coated coverslips, and 24 to 36 h later, transfected cells were ready for patch-clamp analysis.
# (§3) Patch clamp experiments were conducted using an electrophysiology platform comprising a MultiClamp 700B amplifier and an Axon Digidata 1550 AD/DA convertor (Axon Instruments). Data acquisition was performed with pClamp 10.5 software (Axon Instruments). All experiments were performed at room temperature.
# For Kv current recordings, the bath solution contained (in mM) the following: 140 NaCl, 5 KCl, 1 MgCl2, 2 CaCl2, 10 glucose, and 10 Hepes (pH 7.3, adjusted with NaOH), and the pipette solution contained (in mM) the following: 140 KCl, 2.5 MgCl2, 11 EGTA, and 10 Hepes (pH 7.3, adjusted with KOH). Series resistance was maintained below 10 MΩ and compensated to 80%. […] Whole cell conductance (G) at each depolarizing voltage (V) was determined using the equation: G = I/(V−Vrev), where I is the current amplitude, and Vrev is the reversal potential. […] The steady-state fast inactivation of Kv1.3 was measured using a two-pulses protocol. […]
# Kv1.3 S359A mutant = test: Whole-cell patch clamp, Kv1.3 alanine mutant; assay type: cell-based, human; conditions: 100 nM MrVIII, +30 mV; n = 4–7
# Protocol: (§4) MrVIII inhibits Kv1 channels by stabilizing the voltage sensor in its resting state. […] To investigate this hypothesis, we constructed a series of alanine mutants in the S3-S4 region of the Kv1.3 channel, covering residues I336 to L363, to identify critical interactions between the peptide and the channel (Fig. 6A). […] For the remaining mutants that retained functional current expression, we evaluated the inhibitory activity of 100 nM MrVIII. […] The lack of conserved multiple interaction sites may explain the absence of activity on other Kv subfamily channels (Fig. S3). In summary, this study identified key amino acid residues in the S3-S4 region of the Kv1.3 channel that interact with MrVIII, providing a foundation for further exploration into the peptide's mechanism of action.
# as §1, §2, §3
# (§5) For Kv current recordings, the bath solution contained (in mM) the following: 140 NaCl, 5 KCl, 1 MgCl2, 2 CaCl2, 10 glucose, and 10 Hepes (pH 7.3, adjusted with NaOH), and the pipette solution contained (in mM) the following: 140 KCl, 2.5 MgCl2, 11 EGTA, and 10 Hepes (pH 7.3, adjusted with KOH). Series resistance was maintained below 10 MΩ and compensated to 80%. Concentration–response curves were fitted by the Hill equation to determine the toxin's potency. Whole cell conductance (G) at each depolarizing voltage (V) was determined using the equation: G = I/(V−Vrev), where I is the current amplitude, and Vrev is the reversal potential. The reversal potential for K^+ current was estimated to be −85.6 mV using the Nernst equation. G-V curves were obtained by plotting the normalized conductance as a function of V and fitted by the Boltzmann equation: y = 1/(1+ exp((Va-V)/k)), which Va is the midpoint voltage, V is the test potential, and k is the slope factor. The steady-state fast inactivation of Kv1.3 was measured using a two-pulses protocol. […]
# Kv1.3/Y339A = test: Whole-cell patch clamp, Kv1.3 alanine mutant; assay type: cell-based, human
# Protocol: as §4, §1, §2, §3, §5
# Kv1.3 Q355A mutant = test: Whole-cell patch clamp, Kv1.3 alanine mutant; assay type: cell-based, human; conditions: 100 nM MrVIII, +30 mV; n = 4–7
# Protocol: as §4, §1, §2, §3, §5
# Kv1.3 G344A mutant = test: Whole-cell patch clamp, Kv1.3 alanine mutant; assay type: cell-based, human; conditions: 100 nM MrVIII, +30 mV; n = 4–7
# Protocol: as §4, §1, §2, §3, §5
# Kv1.3 T345A mutant = test: Whole-cell patch clamp, Kv1.3 alanine mutant; assay type: cell-based, human; conditions: 100 nM MrVIII, +30 mV; n = 4–7
# Protocol: as §4, §1, §2, §3, §5
# Kv1.3 E349A mutant = test: Whole-cell patch clamp, Kv1.3 alanine mutant; assay type: cell-based, human; conditions: 100 nM MrVIII, +30 mV; n = 4–7
# Protocol: as §4, §1, §2, §3, §5
smiles,measurement,setting,value
"CC[C@H](C)[C@@H]1NC(=O)[C@H](Cc2ccc(O)cc2)NC(=O)[C@H](CCC(N)=O)NC(=O)[C@@H]2CCCN2C(=O)[C@@H]2CSSC[C@H](NC(=O)[C@H](C)NC(=O)[C@H](CO)NC(=O)[C@H](CCC(=O)O)NC(=O)[C@H](CCC(=O)O)NC(=O)[C@@H](N)[C@@H](C)O)C(=O)NCC(=O)NCC(=O)N[C@@H](Cc3ccccc3)C(=O)N[C@@H](CC(N)=O)C(=O)N[C@@H](C)C(=O)N[C@@H](CCCNC(=N)N)C(=O)N[C@H]3CSSC[C@H](NC1=O)C(=O)N[C@@H](CCCCN)C(=O)NCC(=O)N[C@@H](Cc1c[nH]c4ccccc14)C(=O)N[C@@H](CCCNC(=N)N)C(=O)N[C@@H]([C@@H](C)O)C(=O)N[C@@H](CCCCN)C(=O)N[C@@H](CCCNC(=N)N)C(=O)N[C@H](C(=O)N[C@@H](CC(C)C)C(=O)N[C@@H](CC(N)=O)C(=O)N1CCC[C@H]1C(=O)O)CSSC[C@H](NC(=O)[C@H](CCCCN)NC(=O)[C@H](Cc1c[nH]cn1)NC(=O)[C@H](CC(C)C)NC(=O)[C@@H]1CCCN1C3=O)C(=O)N2 [MrVIII] (H-TEESACGGFNARCPLHKCCPQYICKGWRTKRCLNP-OH; disulfide 6-19, 13-24, 18-32; N-terminus and C-terminus assumed)","inhi%(495 ms), Kv1.1 current","hKv1.1; 10 μM (saturating), current at 495 ms, +30 mV, mean ± SD, SD",23.9 ± 18.5%
same,inhibitory effect on Kv1.1 current at 495 ms once depolarizing voltage exceeded +40 mV,"hKv1.1; 10 μM MrVIII, I-V protocol",negligible
same,inhibition at 10 µM,"hKv1.1; CHO-K1, 10 μM MrVIII, I-V protocol, holding −80 mV, mean ± SD, n = 5–7, SD, read-out: inhibition of Kv1.1 current at 50 ms at +100 mV",11.6 ± 7.9%
same,IC50,"hKv1.1; current measured at 50 ms of a 500 ms depolarization to +30 mV, mean ± SD, n = 4–7, SD",50.9 ± 21.7 nM
same,"reduction in inhibitory potency vs WT Kv1.3, S359A",Kv1.3 S359A mutant,more than 5 fold
same,"decrease of inhibitory potency vs WT Kv1.3, Y339A","Kv1.3/Y339A; 100 nM MrVIII on mutant compared with 10 nM on WT Kv1.3, +30 mV, n = 4–7",more than 10 fold
same,inhibition of peak current of Kv1.3/Y339A,"Kv1.3/Y339A; 10 μM MrVIII, +30 mV, mean ± SD, n = 4–6, SD",24.9 ± 6.0%
same,"reduction in inhibitory potency vs WT Kv1.3, Q355A",Kv1.3 Q355A mutant,more than 5 fold
same,"reduction in inhibitory potency vs WT Kv1.3, G344A",Kv1.3 G344A mutant,more than 5 fold
same,"reduction in inhibitory potency vs WT Kv1.3, T345A",Kv1.3 T345A mutant,more than 5 fold
same,"reduction in inhibitory potency vs WT Kv1.3, E349A",Kv1.3 E349A mutant,more than 5 fold
